Source: patent US10954214B2 (Janssen Pharmaceutica NV, priority 2016, dated 2021)

Tests used:
[1] = biological target: full-length MALT1 protein (Strep-MALT1(1-824)-His) (Homo sapiens (Human), UniProt Q9UDY8); assay: MALT1 Biochemical Protease Assay (Ac-LRSR-AMC substrate); conditions: 10 nM FL MALT1, 200 μM Ac-LRSR-AMC, 4 h at RT; read-out: MALT1_Biochemical activity (Ac-LRSR-amc) IC50
Outline: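 Fluorescence from AMC release off the quenched LRSR substrate was read after a 4 h reaction at RT. Values were normalised to no-enzyme and uninhibited controls and fitted for IC50 and Hill coefficient.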

[2] = test system: IL6 secretion by TMD8 ABC-DLBCL cells; assay: Human IL6 Mesoscale assay (TMD-8); type: cell-based; conditions: Homo sapiens, TMD8; TMD-8 cells, 24 h
Outline: (§1)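 100,000 cells/well treated with compound in 9 twofold steps from 15 μM to 58.6 nM (0.3% DMSO) for 24 h at 37° C; supernatant cytokine measured by MSD electrochemiluminescence sandwich immunoassay. DMSO wells set maximum signal, BTK inhibitor RN486 (30 nM to 131 pM) set maximum inhibition.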

[3] = test system: IL10 secretion by TMD8 ABC-DLBCL cells; assay: Human IL10 Mesoscale assay (TMD-8); type: cell-based; conditions: Homo sapiens, TMD8; TMD-8 cells, 24 h
Outline: as §1

OCI-Ly3 cells = assay: 4-day proliferation assay, OCI-Ly3; type: cell-based, human; conditions: Homo sapiens, 96 h, 4 days incubation, CellTiterGLO, read-out: Anti-proliferation: OCI-LY-3 IC50
Procedure: (§2) To assess anti-proliferative effects, MALT1 inhibitor test compounds were tested in 4-day proliferation assays using three different DLBCL cell lines.
(§3) Cells should be kept between 0.5-2.5 million cells per mL during culturing and cells should be supplemented every 2-3 days with fresh 50 μM beta-mercaptoenthanol. No beta-mercaptoethanol is used during the proliferation assay. OCI-Ly7 cells were propagated in IMDM (ThermoFisher) supplemented with 10% fetal bovine serum (HyClone), 2 mM L-glutamine (Sigma Aldrich) and 50 μg/mL Gentamycin. Cell passage numbers should not exceed 30 (for OCI-Ly3 cells with passage number lower than 10 were used).
(§4) 10,000 TMD8, 10,000 OCI-Ly3 or 2,000 OCI-Ly7 cells were seeded in 100 μL media per well and incubated for 4 days at 37° C. and 5% CO2. Cell plating numbers were chosen based on growth curves to ensure linear cell growth. After 4 days of incubation 50 μL CellTiterGLO reagent (Promega) were added to each well and luminescence was measured on the Envision after 10 min of incubation at room temperature.
(§5) LC=median of the low control values
(§6) An estimate of the slope of the plot in terms of the Hill coefficient was also obtained.

TMD8 cells = assay: 4-day proliferation assay, TMD8; type: cell-based; conditions: Homo sapiens, 96 h, 4 days incubation, CellTiterGLO, read-out: Anti-proliferation: TMD-8 IC50
Procedure: as §2, §3, §4, §5, §6

[4] = test system: IL6 secretion by OCI-LY3 ABC-DLBCL cells; assay: Human IL6 Mesoscale assay (OCI-LY3); type: cell-based; conditions: Homo sapiens, 24 h
Outline: as §1

[5] = test system: IL10 secretion by OCI-LY3 ABC-DLBCL cells; assay: Human IL10 Mesoscale assay (OCI-LY3); type: cell-based; conditions: Homo sapiens, 24 h
Outline: as §1

Chain of full-length MALT1 protein (Strep-MALT1(1-824)-His) (Q9UDY8 whole entry): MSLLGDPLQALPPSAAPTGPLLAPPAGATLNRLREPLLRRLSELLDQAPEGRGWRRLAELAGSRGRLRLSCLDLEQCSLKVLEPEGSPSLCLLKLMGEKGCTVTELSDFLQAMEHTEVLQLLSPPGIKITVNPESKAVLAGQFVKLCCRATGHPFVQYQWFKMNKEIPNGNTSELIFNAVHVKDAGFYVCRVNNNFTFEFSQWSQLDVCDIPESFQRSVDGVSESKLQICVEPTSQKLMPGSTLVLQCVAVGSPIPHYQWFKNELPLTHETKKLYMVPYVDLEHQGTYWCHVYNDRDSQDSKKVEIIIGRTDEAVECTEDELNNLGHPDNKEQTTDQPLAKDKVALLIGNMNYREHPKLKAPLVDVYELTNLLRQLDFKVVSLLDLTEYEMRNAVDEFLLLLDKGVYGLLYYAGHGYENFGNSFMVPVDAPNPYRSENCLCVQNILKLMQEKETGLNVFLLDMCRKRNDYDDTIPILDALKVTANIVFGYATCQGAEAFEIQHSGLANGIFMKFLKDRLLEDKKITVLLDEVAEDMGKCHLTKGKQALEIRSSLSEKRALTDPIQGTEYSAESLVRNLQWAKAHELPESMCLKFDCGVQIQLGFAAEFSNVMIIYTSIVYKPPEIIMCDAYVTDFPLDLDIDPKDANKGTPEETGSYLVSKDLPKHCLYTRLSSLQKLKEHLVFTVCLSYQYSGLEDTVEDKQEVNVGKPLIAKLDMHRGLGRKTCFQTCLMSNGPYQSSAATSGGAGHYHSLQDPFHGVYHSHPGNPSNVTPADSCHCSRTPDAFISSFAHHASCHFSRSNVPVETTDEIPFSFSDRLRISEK

Row | SMILES | IC50 [1] [nM] | IC50 [2] [nM] | IC50 [3] [nM] | IC50 (OCI-Ly3 cells) [nM] | IC50 (TMD8 cells) [nM] | IC50 [4] [nM] | IC50 [5] [nM]
1 | O=C(Nc1cnc(-n2nccn2)c(Cl)c1)c1cnn(-c2c[nH]c(=O)c3c(F)cccc23)c1C(F)(F)F [Cpd 184, N-(5-chloro-6-(2H-1,2,3-triazol-2-yl)pyridin-3-yl)-1-(8-fluoro-1-oxo-1,2-dihydroisoquinolin-4-yl)-5-(trifluoromethyl)-1H-pyrazole-4-carboxamide] | 32 | 4270 | 1000 | 585 | 6030 |  | 
2 | Cn1ccc(-c2ncc(NC(=O)c3cnn(-c4cccc5ccncc45)c3C(F)(F)F)cc2Cl)n1 [Cpd 21, N-(5-Chloro-6-(1-methyl-1H-pyrazol-3-yl)pyridin-3-yl)-1-(isoquinolin-8-yl)-5-(trifluoromethyl)-1H-pyrazole-4-carboxamide] | 1440 | > 15000 |  | ~12900 | > 20000 |  | 
3 | N#Cc1cc(NC(=O)c2cnn(-c3ccnc4sccc34)c2C(F)(F)F)cnc1-n1nccn1 [Cpd 126, N-(5-cyano-6-(2H-1,2,3-triazol-2-yl)pyridin-3-yl)-1-(thieno[2,3-b]pyridin-4-yl)-5-(trifluoromethyl)-1H-pyrazole-4-carboxamide] | 15 | 21 | 43 | 135 | 794 |  | 
4 | NCCCCNC(=O)c1ncc(NC(=O)c2cnn(-c3cncc4ccccc34)c2C(F)(F)F)cc1Cl [Cpd 72, N-(4-aminobutyl)-3-chloro-5-(1-(isoquinolin-4-yl)-5-(trifluoromethyl)-1H-pyrazole-4-carboxamido)picolinamide] | 407 | 851 | 1380 | 1660 | > 20000 |  | 
5 | N#Cc1cc(NC(=O)c2cnn(-c3nccn4cccc34)c2C(F)(F)F)cnc1-n1nccn1 [Cpd 148, N-(5-cyano-6-(2H-1,2,3-triazol-2-yl)pyridin-3-yl)-1-(pyrrolo[1,2-a]pyrazin-1-yl)-5-(trifluoromethyl)-1H-pyrazole-4-carboxamide] | 32 | 105 | 112 | 692 | 3800 |  | 
6 | N#Cc1cc(NC(=O)c2cnn(-c3ncnn4cccc34)c2C(F)(F)F)cnc1-n1nccn1 [Cpd 140, N-(5-cyano-6-(2H-1,2,3-triazol-2-yl)pyridin-3-yl)-1-(pyrrolo[2,1-f][1,2,4]triazin-4-yl)-5-(trifluoromethyl)-1H-pyrazole-4-carboxamide] | 24 | 72 | 28 | 1170 | 5370 |  | 
7 | Cc1ccc2ncccc2c1-n1ncc(C(=O)Nc2cnc(-n3nccn3)c(Cl)c2)c1C(F)(F)F [Cpd 27, N-(5-Chloro-6-(2H-1,2,3-triazol-2-yl)pyridin-3-yl)-1-(6-methylquinolin-5-yl)-5-(trifluoromethyl)-1H-pyrazole-4-carboxamide] | 35 | 105 |  | 1950 | 13800 |  | 
8 | C[C@@H](O)c1nccc2c(-n3ncc(C(=O)Nc4cnc(-n5nccn5)c(Cl)c4)c3C(F)(F)F)cccc12 (single isomer, unassigned) [Cpd 444, (*R)—N-(5-chloro-6-(2H-1,2,3-triazol-2-yl)pyridin-3-yl)-1-(1-(1-hydroxyethyl)isoquinolin-5-yl)-5-(trifluoromethyl)-1H-pyrazole-4-carboxamide] | 58 | 107 | 63 |  |  | 39 | 27
9 | Cc1csc2c(-n3ncc(C(=O)Nc4cnc(-n5nccn5)c(C#N)c4)c3C(F)(F)F)ccnc12 [Cpd 310, N-(5-cyano-6-(2H-1,2,3-triazol-2-yl)pyridin-3-yl)-1-(3-methylthieno[3,2-b]pyridin-7-yl)-5-(trifluoromethyl)-1H-pyrazole-4-carboxamide] | 52 |  |  | 1270 |  | 646 | 490
10 | N#Cc1cc(NC(=O)c2cnn(-c3ccnc4ccsc34)c2C(F)(F)F)cnc1-n1nccn1 [Cpd 128, N-(5-cyano-6-(2H-1,2,3-triazol-2-yl)pyridin-3-yl)-1-(thieno[3,2-b]pyridin-7-yl)-5-(trifluoromethyl)-1H-pyrazole-4-carboxamide] | 16 | 95 | 105 | 188 |  | 27 | 36
11 | CC(C)(C)OC(=O)N1CCC1c1nccc2c(-n3ncc(C(=O)Nc4cnc(-n5nccn5)c(Cl)c4)c3C(F)(F)F)cccc12 (centres unmarked) [Cpd 383, tert-butyl 2-(5-(4-((5-chloro-6-(2H-1,2,3-triazol-2-yl)pyridin-3-yl)carbamoyl)-5-(trifluoromethyl)-1H-pyrazol-1-yl)isoquinolin-1-yl)azetidine-1-carboxylate] | 10000 | 95 | 105 |  |  | 27 | 36
12 | Cn1ccc(-c2ncc(NC(=O)c3cnn(-c4ccc(F)c5ncccc45)c3C(F)(F)F)cc2C#N)n1 [Cpd 268, N-(5-cyano-6-(1-methyl-1H-pyrazol-3-yl)pyridin-3-yl)-1-(8-fluoroquinolin-5-yl)-5-(trifluoromethyl)-1H-pyrazole-4-carboxamide] | 155 | 158 | 229 |  |  | 95 | 63
13 | O=C(Nc1cnc(-n2nccn2)c(Cl)c1)c1cnn(-c2cccc3c(C4CCN4)nccc23)c1C(F)(F)F (centres unmarked) [Cpd 384, 1-(1-(azetidin-2-yl)isoquinolin-5-yl)-N-(5-chloro-6-(2H-1,2,3-triazol-2-yl)pyridin-3-yl)-5-(trifluoromethyl)-1H-pyrazole-4-carboxamide] | 5890 | 120 | 123 |  |  | 18 | 14
14 | Cc1nc(-n2cccn2)c(Cl)cc1NC(=O)c1cnn(-c2cccc3nnsc23)c1C(F)(F)F [Cpd 303, 1-(benzo[d][1,2,3]thiadiazol-7-yl)-N-(5-chloro-2-methyl-6-(1H-pyrazol-1-yl)pyridin-3-yl)-5-(trifluoromethyl)-1H-pyrazole-4-carboxamide] | 282 | 234 | 174 |  |  | 251 | 275
15 | CC(C)Cc1c(C(=O)Nc2cnc(-n3nccn3)c(Cl)c2)cnn1-c1cccc2ncccc12 [Cpd 16, N-(5-Chloro-6-(2H-1,2,3-triazol-2-yl)pyridin-3-yl)-5-isobutyl-1-(quinolin-5-yl)-1H-pyrazole-4-carboxamide] | 724 | 1480 |  | 580 | 10700 |  | 
16 | O=C1COC(c2ncc(-n3ncc(C(=O)Nc4cnc(-n5nccn5)c(Cl)c4)c3C(F)(F)F)c3ccccc23)C1 (centres unmarked) [Cpd 370, N-(5-chloro-6-(2H-1,2,3-triazol-2-yl)pyridin-3-yl)-1-(1-(4-oxotetrahydrofuran-2-yl)isoquinolin-4-yl)-5-(trifluoromethyl)-1H-pyrazole-4-carboxamide] | 107 | 54 | 46 |  |  | 13 | 10
17 | Cc1nc(-n2nccn2)c(Cl)cc1NC(=O)c1cnn(-c2cccc3nccn23)c1C(F)(F)F [Cpd 194, N-(5-chloro-2-methyl-6-(2H-1,2,3-triazol-2-yl)pyridin-3-yl)-1-(imidazo[1,2-a]pyridin-5-yl)-5-(trifluoromethyl)-1H-pyrazole-4-carboxamide] | 76 | 78 | 98 |  |  | 100 | 68
18 | Cc1cc(NC(=O)c2cnn(-c3cccc4ncccc34)c2C(F)(F)F)ccc1-n1cc(CN)cn1 [Cpd 238, N-(4-(4-(aminomethyl)-1H-pyrazol-1-yl)-3-methylphenyl)-1-(quinolin-5-yl)-5-(trifluoromethyl)-1H-pyrazole-4-carboxamide] | 676 | 32 | 50 |  |  | 44 | 35
19 | COc1nccc2c(-n3ncc(C(=O)Nc4cnc(-n5nccn5)c(Cl)c4)c3C(F)(F)F)cccc12 [Cpd 243, N-(5-chloro-6-(2H-1,2,3-triazol-2-yl)pyridin-3-yl)-1-(1-methoxyisoquinolin-5-yl)-5-(trifluoromethyl)-1H-pyrazole-4-carboxamide] | 417 | 363 | 339 |  |  | 120 | 129
